Patent US11285144B2, “Use of CDK8 inhibitors to treat diseases of inflammation and autoimmunity” (THE BROAD INSTITUTE, INC., priority 2016, dated 2022)
pIC50: −log10 of the molar value. Entries after “also recorded” stand apart in the source; their conditions may differ.

Tests used:
[1] = molecular target: Cyclin C/CDK8 (Homo sapiens, UniProt P49336); experiment: Kinase activity of recombinant Cyclin C/CDK8; type: biochemical; details: recombinant complex
Text: (§1) Together, these kinase profiling, binding assay, enzyme inhibition and cell-based data identify the Mediator-associated kinases CDK8, and to a lesser degree CDK19, as molecular targets of BRD6989.

[2] = system: Zymosan A-stimulated BMDCs; experiment: Viability of zymosan A-stimulated BMDCs; type: cell-based, mouse
Text: (§2) The pyridinyl tetrahydroquinoline BRD6989 (10) emerged as a prioritized hit in the screen (FIG. 2a and Table 2). […] Thus, BRD6989 enhances IL-10 production in activated human and murine macrophages and dendritic cells by a mechanism that appears most pronounced following stimulation of toll-like receptors-7 (TLR7) and TLR8 by R848.

[3] = system: 414 kinases; experiment: Kinase profiling by binding and activity assays
Text: Given that the pyridine core of BRD6989 is a common kinase-binding motif (Xing et al., J Comput Aided Mol Des 28:13-23, 2014), its activity against 414 kinases was profiled using a series of binding and activity assays. […] Binding of BRD6989 to CDK8, and its paralog CDK19, was confirmed using an orthogonal kinase-profiling format.

[4] = molecular target: recombinant Cyclin C/CDK19 (Homo sapiens, UniProt Q9BWU1); experiment: Kinase activity of recombinant Cyclin C/CDK19; type: biochemical; details: recombinant complex
Text: as §1

[5] = system: R848-stimulated BMDCs; experiment: IL-10 mRNA levels in BMDCs following R848 stimulation; type: cell-based, mouse; details: pre-treatment, then R848 stimulation
Protocol: FIG. 5—Cellular activities of the IL-10 hit BRD6989. […] (d) Effect of BRD6989 on IL-10 production in human DCs stimulated with R848 (each point corresponds to mean±S.D.; n=3 biological replicates from 1 independent experiment using cells derived from 1 donor). (e) Chemical structure of the pan-SIK inhibitor HG-9-91-01. (f) Effect of pre-treating BMDCs with HG-9-91-01 (0.5 μM) or BRD6989 (5 μM) on IL-10 mRNA levels following stimulation with R848 (each point corresponds to mean±S.D.; n=4 biological replicates from 1 independent experiment; *, P<0.05; ***, P<0.001 using unpaired, two-tailed Student's t test). Data from all panels is representative of at least 2 independent experiments.
Based on its ability to selectively potentiate IL-10 production by a mechanism that appears temporally distinct from CREB activation, BRD6989 was prioritized for MOA studies.

[6] = system: Cyclin B/CDK1, Cyclin A/CDK2, p35/CDK5, Cyclin H/CDK7, Cyclin T/CDK9; experiment: Activity of other CDKs; type: biochemical; details: CDKs involved in cell cycle regulation
Text: (a) Binding of the indicated concentrations of BRD6989 to CDK8/Cyclin C complexes (each point corresponds to mean±S.D.; n=3 biological replicates from 1 independent experiment). (b-f) Effect of the indicated concentrations of BRD6989 on the activity of (b) Cyclin B/CDK1, (c) Cyclin A/CDK2, (d) p35/CDK5, (e) Cyclin H/CDK7, and (f) Cyclin T/CDK9 (each point corresponds to mean±S.D.; n=3 biological replicates from 1 independent experiment).
as §1

[7] = system: human, monocyte-derived DCs; experiment: IL-10 production in human monocyte-derived DCs stimulated with R848; type: cell-based
Text: as §2
Pre-treatment with these CDK8/19 inhibitors recapitulated the IL-10 potentiating activity of BRD6989 in both BMDCs (FIG. 9b) along with human DCs derived from two independent donors in the context of R848 stimulation (FIGS. 9c and 10a).

Cyclin C/CDK8, sequence (P49336 whole entry, species assumed): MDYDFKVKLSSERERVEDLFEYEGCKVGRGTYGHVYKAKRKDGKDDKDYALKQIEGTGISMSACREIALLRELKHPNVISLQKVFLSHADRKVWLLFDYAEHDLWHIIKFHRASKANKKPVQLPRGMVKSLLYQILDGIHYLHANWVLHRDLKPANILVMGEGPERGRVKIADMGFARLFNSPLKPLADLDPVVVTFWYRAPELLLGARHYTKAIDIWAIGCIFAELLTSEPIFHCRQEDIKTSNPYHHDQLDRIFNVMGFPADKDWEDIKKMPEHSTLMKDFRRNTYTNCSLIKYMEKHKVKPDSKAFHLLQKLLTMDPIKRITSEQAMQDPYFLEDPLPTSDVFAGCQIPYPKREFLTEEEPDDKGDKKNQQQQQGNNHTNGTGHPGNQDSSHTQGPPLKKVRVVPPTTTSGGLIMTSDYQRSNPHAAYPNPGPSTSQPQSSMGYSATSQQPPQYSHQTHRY
Cyclin C/CDK8, sequence (P24863 whole entry partner, species assumed): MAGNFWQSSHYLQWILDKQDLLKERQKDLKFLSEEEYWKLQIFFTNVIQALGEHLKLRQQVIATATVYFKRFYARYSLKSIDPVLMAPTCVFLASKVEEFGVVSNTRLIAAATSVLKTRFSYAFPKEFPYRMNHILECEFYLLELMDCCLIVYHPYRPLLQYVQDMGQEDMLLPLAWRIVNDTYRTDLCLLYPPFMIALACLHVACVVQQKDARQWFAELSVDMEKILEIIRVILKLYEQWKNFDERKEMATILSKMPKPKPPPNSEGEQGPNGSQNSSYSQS
recombinant Cyclin C/CDK19, sequence (Q9BWU1 whole entry, species assumed): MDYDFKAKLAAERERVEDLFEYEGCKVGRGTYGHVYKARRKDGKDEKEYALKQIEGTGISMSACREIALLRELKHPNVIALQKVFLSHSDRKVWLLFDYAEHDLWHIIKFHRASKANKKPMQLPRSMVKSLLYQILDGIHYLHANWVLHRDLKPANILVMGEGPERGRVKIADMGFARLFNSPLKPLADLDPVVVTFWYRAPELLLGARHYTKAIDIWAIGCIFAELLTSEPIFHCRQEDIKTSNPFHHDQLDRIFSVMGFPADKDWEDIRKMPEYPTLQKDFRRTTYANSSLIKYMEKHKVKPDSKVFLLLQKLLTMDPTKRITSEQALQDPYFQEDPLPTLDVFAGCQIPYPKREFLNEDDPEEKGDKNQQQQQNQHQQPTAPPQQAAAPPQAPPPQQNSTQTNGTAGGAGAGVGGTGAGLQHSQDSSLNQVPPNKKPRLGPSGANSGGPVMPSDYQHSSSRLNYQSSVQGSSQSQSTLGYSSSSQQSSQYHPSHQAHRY
recombinant Cyclin C/CDK19, sequence (P24863 whole entry partner, species assumed): as the sequence (P24863 whole entry partner, species assumed) above

CC1CCc2nc(N)c(C#N)c(-c3cccnc3)c2C1 (centres unmarked) [BRD6989]
pIC50 [1]: ~6.30
cell viability [2]: only modestly reducing cell viability; also recorded: does not significantly reduce the viability
secondary targets in kinase profiling ([3]; both kinase profiling experiments): phosphatidylinositol-4,5-bisphosphate 3-kinases C2A (PI3KC2A) and PI3KCG as secondary targets
kinase selectivity ([3]; kinase profiling): remarkable selectivity
pIC50 [4]: < 4.52
IL-10 mRNA levels [5]: sustained increase beginning at 4 hours and extending to 24 hours
inhibition of several other CDKs [6]: not the activity of several CDKs involved in cell cycle regulation; also recorded: does not inhibit
IL-10 production [7]: up-regulated IL-10
